Results on 14 compounds are retold here after patent publication US20260022142A1, “MACROCYCLIC IMMUNOMODULATORS” (Bristol-Myers Squibb Company, priority 2022, published 2026).

pIC50: −log10 of the molar value. Bridge positions count the residues as written; N and C are the ends. Square brackets hold non-standard residues; d marks the D form. Peptide text beside a SMILES is read from it. * marks the point of attachment. ξ: configuration not given here. Bip = N[C@@H](Cc1ccc(-c2ccccc2)cc1)C(=O)O; Phe(3-Me) = Cc1cccc(C[C@H](N)C(=O)O)c1; Cha = N[C@@H](CC1CCCCC1)C(=O)O; dOrn = NCCC[C@@H](N)C(=O)O; dDab = NCC[C@@H](N)C(=O)O; Carboxymethyl = O=C(O)C*; Orn = NCCC[C@H](N)C(=O)O; dDap = NC[C@@H](N)C(=O)O; Aun = NCCCCCCCCCCC(=O)O; Dab = NCC[C@H](N)C(=O)O; Dap = NC[C@H](N)C(=O)O; ξC = NC(CS)C(=O)O

For the experiment, the target named is T1, PD-1/PD-L1 interaction (PE-labeled human PD-L1-Ig binding to Jurkat cell line over-expressing human PD-1) (Homo sapiens, UniProt Q15116).
T1 construct: expressed in transfected cells; host or cells: Jurkat
T1 sequence (Q15116 25-288): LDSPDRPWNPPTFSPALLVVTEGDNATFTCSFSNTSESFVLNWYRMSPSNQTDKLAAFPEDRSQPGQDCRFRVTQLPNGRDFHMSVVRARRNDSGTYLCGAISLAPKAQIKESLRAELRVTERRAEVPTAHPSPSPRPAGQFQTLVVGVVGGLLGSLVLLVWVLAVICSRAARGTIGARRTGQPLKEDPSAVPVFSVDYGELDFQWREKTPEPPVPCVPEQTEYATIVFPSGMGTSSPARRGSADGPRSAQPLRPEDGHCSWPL
The experiment is described as follows: Jurkat-PD-1 Cell Binding High-Content Screening Assay (CBA). In kind it is cell-based. Conditions: Jurkat cell line over-expressing human PD-1; PE-labeled PD-L1-Ig 20 nM final; read-out: Jurkat hPD1-PDL1 IC50. An outline of the steps:
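Human PD-L1-Ig carrying a covalent PE label on its Ig tag serves as the probe, applied at 20 nM final to compound-treated (2 h, 37° C) Jurkat-hPD-1 cells in medium with 10% fetal calf serum. After one hour, fixation and nuclear staining precede high-content image analysis.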
As to `Cc1cccc(C[C@@H]2NC(=O)[C@H](CC(=O)O)NC(=O)[C@H](Cc3ccc(OCC(=O)O)cc3)NC(=O)[C@H](CN)NC(=O)CSC[C@@H](C(=O)N[C@@H](C)C(=O)N[C@@H](CCN)C(=O)NCCCCCCCCCCC(=O)O)NC(=O)[C@H]([C@@H](C)O)NC(=O)[C@H](C(C)C)NC(=O)[C@H](CC3CCCCC3)NC(=O)[C@H](Cc3cnc[nH]3)NC(=O)[C@@H](CC(C)C)NC(=O)[C@H](CCCN)NC(=O)[C@H](C(C)C)NC(=O)[C@H](Cc3ccc(-c4ccccc4)cc3)NC(=O)[C@H](C(C)C)NC2=O)c1` [Compound 1112] ({CH2CO}-[Dap]Y(Carboxymethyl)D[Phe(3-Me)]V[Bip]V[Orn][dL]H[Cha]VTCA[Dab][Aun]-OH; thioether N-14), the negative logarithm of the IC50 (pIC50) was 7.74.

Regarding `Cc1cccc(C[C@@H]2NC(=O)[C@H](CC(=O)O)NC(=O)[C@H](Cc3ccc(OCC(=O)O)cc3)NC(=O)[C@H](CN)NC(=O)CSC[C@@H](C(=O)N[C@@H](C)C(=O)N[C@@H](CCCN)C(=O)NCCCCCCCCCCC(=O)O)NC(=O)[C@H]([C@@H](C)O)NC(=O)[C@H](C(C)C)NC(=O)[C@H](CC3CCCCC3)NC(=O)[C@H](Cc3cnc[nH]3)NC(=O)[C@@H](CC(C)C)NC(=O)[C@H](CCCN)NC(=O)[C@H](C(C)C)NC(=O)[C@H](Cc3ccc(-c4ccccc4)cc3)NC(=O)[C@H](C(C)C)NC2=O)c1` [Compound 1113] ({CH2CO}-[Dap]Y(Carboxymethyl)D[Phe(3-Me)]V[Bip]V[Orn][dL]H[Cha]VTCA[Orn][Aun]-OH; thioether N-14), the negative-log IC50 (pIC50) was 7.52.

Turning to `CC(C)C[C@H]1NC(=O)[C@H](CCCN)NC(=O)[C@H](C(C)C)NC(=O)[C@H](Cc2ccc(-c3ccccc3)cc2)NC(=O)[C@H](C(C)C)NC(=O)[C@H](Cc2c[nH]c3ccccc23)NC(=O)[C@H](CC(=O)O)NC(=O)[C@H](Cc2ccc(OCC(=O)O)cc2)NC(=O)[C@H](CN)NC(=O)CSC[C@@H](C(=O)N[C@@H](C)C(=O)N[C@@H](CO)C(=O)NCCCCCCCCCCC(=O)O)NC(=O)[C@H]([C@@H](C)O)NC(=O)[C@H](C(C)C)NC(=O)[C@H](CC2CCCCC2)NC(=O)[C@H](Cc2cnc[nH]2)NC1=O` [Compound 1114] ({CH2CO}-[Dap]Y(Carboxymethyl)DWV[Bip]V[Orn][dL]H[Cha]VTCAS[Aun]-OH; thioether N-14), the negative logarithm of the IC50 (pIC50) was 7.21.

Regarding `Cc1cccc(C[C@@H]2NC(=O)[C@H](CC(=O)O)NC(=O)[C@H](Cc3ccc(OCC(=O)O)cc3)NC(=O)[C@H](CN)NC(=O)CSC[C@@H](C(=O)N[C@@H](C)C(=O)N[C@@H](CO)C(=O)NCCCCCCCCCCC(=O)O)NC(=O)[C@H]([C@@H](C)O)NC(=O)[C@H](C(C)C)NC(=O)[C@H](CC3CCCCC3)NC(=O)[C@H](Cc3cnc[nH]3)NC(=O)[C@@H](CC(C)C)NC(=O)[C@H](CCCN)NC(=O)[C@H](C(C)C)NC(=O)[C@H](Cc3ccc(-c4ccccc4)cc3)NC(=O)[C@H](C(C)C)NC2=O)c1` [Compound 1115] ({CH2CO}-[Dap]Y(Carboxymethyl)D[Phe(3-Me)]V[Bip]V[Orn][dL]H[Cha]VTCAS[Aun]-OH; thioether N-14), the pIC50 is 7.59.

Take `CC(C)C[C@H]1NC(=O)[C@H](CCCN)NC(=O)[C@H](C(C)C)NC(=O)[C@H](Cc2ccc(-c3ccccc3)cc2)NC(=O)[C@H](C(C)C)NC(=O)[C@H](Cc2c[nH]c3ccccc23)NC(=O)[C@H](CC(=O)O)NC(=O)[C@H](Cc2ccc(OCC(=O)O)cc2)NC(=O)[C@H](CN)NC(=O)CSCC(C(=O)N[C@H](C)C(=O)NCCCCCCCCCCC(=O)O)NC(=O)[C@H]([C@@H](C)O)NC(=O)[C@H](C(C)C)NC(=O)[C@H](CC2CCCCC2)NC(=O)[C@H](Cc2cnc[nH]2)NC1=O` (some centres unmarked) [Compound 1116]: the negative-log IC50 (pIC50) is 7.42.

With `CC(C)C[C@H]1NC(=O)[C@H](CCCN)NC(=O)[C@H](C(C)C)NC(=O)[C@H](Cc2ccc(-c3ccccc3)cc2)NC(=O)[C@H](C(C)C)NC(=O)[C@H](Cc2c[nH]c3ccccc23)NC(=O)[C@H](CC(=O)O)NC(=O)[C@H](Cc2ccc(OCC(=O)O)cc2)NC(=O)[C@H](CN)NC(=O)CSCC(C(=O)N[C@H](CN)C(=O)NCCCCCCCCCCC(=O)O)NC(=O)[C@H]([C@@H](C)O)NC(=O)[C@H](C(C)C)NC(=O)[C@H](CC2CCCCC2)NC(=O)[C@H](Cc2cnc[nH]2)NC1=O` (stereo partly drawn) [Compound 1117] ({CH2CO}-[Dap]Y(Carboxymethyl)DWV[Bip]V[Orn][dL]H[Cha]VT[ξC][dDap][Aun]-OH; thioether N-14), the pIC50 is 7.32.

Consider `CC(C)C[C@H]1NC(=O)[C@H](CCCN)NC(=O)[C@H](C(C)C)NC(=O)[C@H](Cc2ccc(-c3ccccc3)cc2)NC(=O)[C@H](C(C)C)NC(=O)[C@H](Cc2c[nH]c3ccccc23)NC(=O)[C@H](CC(=O)O)NC(=O)[C@H](Cc2ccc(OCC(=O)O)cc2)NC(=O)[C@H](CN)NC(=O)CSCC(C(=O)N[C@H](CCN)C(=O)NCCCCCCCCCCC(=O)O)NC(=O)[C@H]([C@@H](C)O)NC(=O)[C@H](C(C)C)NC(=O)[C@H](CC2CCCCC2)NC(=O)[C@H](Cc2cnc[nH]2)NC1=O` (stereo partly drawn) [Compound 1118] ({CH2CO}-[Dap]Y(Carboxymethyl)DWV[Bip]V[Orn][dL]H[Cha]VT[ξC][dDab][Aun]-OH; thioether N-14), for which the negative logarithm of the IC50 (pIC50) is 7.51.

`CC(C)C[C@H]1NC(=O)[C@H](CCCN)NC(=O)[C@H](C(C)C)NC(=O)[C@H](Cc2ccc(-c3ccccc3)cc2)NC(=O)[C@H](C(C)C)NC(=O)[C@H](Cc2c[nH]c3ccccc23)NC(=O)[C@H](CC(=O)O)NC(=O)[C@H](Cc2ccc(OCC(=O)O)cc2)NC(=O)[C@H](CN)NC(=O)CSCC(C(=O)N[C@H](CCCN)C(=O)NCCCCCCCCCCC(=O)O)NC(=O)[C@H]([C@@H](C)O)NC(=O)[C@H](C(C)C)NC(=O)[C@H](CC2CCCCC2)NC(=O)[C@H](Cc2cnc[nH]2)NC1=O` (stereo partly drawn) [Compound 1119] ({CH2CO}-[Dap]Y(Carboxymethyl)DWV[Bip]V[Orn][dL]H[Cha]VT[ξC][dOrn][Aun]-OH; thioether N-14): the negative-log IC50 (pIC50) was 7.24.

For the compound `CC(C)C[C@H]1NC(=O)[C@H](CCCN)NC(=O)[C@H](C(C)C)NC(=O)[C@H](Cc2ccc(-c3ccccc3)cc2)NC(=O)[C@H](C(C)C)NC(=O)[C@H](Cc2c[nH]c3ccccc23)NC(=O)[C@H](CC(=O)O)NC(=O)[C@H](Cc2ccc(OCC(=O)O)cc2)NC(=O)[C@H](CN)NC(=O)CSCC(C(=O)N[C@H](CCCCN)C(=O)NCCCCCCCCCCC(=O)O)NC(=O)[C@H]([C@@H](C)O)NC(=O)[C@H](C(C)C)NC(=O)[C@H](CC2CCCCC2)NC(=O)[C@H](Cc2cnc[nH]2)NC1=O` (stereo partly drawn) [Compound 1120] ({CH2CO}-[Dap]Y(Carboxymethyl)DWV[Bip]V[Orn][dL]H[Cha]VT[ξC][dK][Aun]-OH; thioether N-14), the pIC50 is 7.39.

As to `CC(C)C[C@H]1NC(=O)[C@H](CCCN)NC(=O)[C@H](C(C)C)NC(=O)[C@H](Cc2ccc(-c3ccccc3)cc2)NC(=O)[C@H](C(C)C)NC(=O)[C@H](Cc2c[nH]c3ccccc23)NC(=O)[C@H](CC(=O)O)NC(=O)[C@H](Cc2ccc(OCC(=O)O)cc2)NC(=O)[C@H](CN)NC(=O)CSCC(C(=O)N[C@H](CC(=O)O)C(=O)NCCCCCCCCCCC(=O)O)NC(=O)[C@H]([C@@H](C)O)NC(=O)[C@H](C(C)C)NC(=O)[C@H](CC2CCCCC2)NC(=O)[C@H](Cc2cnc[nH]2)NC1=O` (stereo partly drawn) [Compound 1121] ({CH2CO}-[Dap]Y(Carboxymethyl)DWV[Bip]V[Orn][dL]H[Cha]VT[ξC][dD][Aun]-OH; thioether N-14), the negative logarithm of the IC50 (pIC50) was 7.56.

Consider `CC(C)C[C@H]1NC(=O)[C@H](CCCN)NC(=O)[C@H](C(C)C)NC(=O)[C@H](Cc2ccc(-c3ccccc3)cc2)NC(=O)[C@H](C(C)C)NC(=O)[C@H](Cc2c[nH]c3ccccc23)NC(=O)[C@H](CC(=O)O)NC(=O)[C@H](Cc2ccc(OCC(=O)O)cc2)NC(=O)[C@H](CN)NC(=O)CSCC(C(=O)N[C@H](CCC(=O)O)C(=O)NCCCCCCCCCCC(=O)O)NC(=O)[C@H]([C@@H](C)O)NC(=O)[C@H](C(C)C)NC(=O)[C@H](CC2CCCCC2)NC(=O)[C@H](Cc2cnc[nH]2)NC1=O` (stereo partly drawn) [Compound 1122] ({CH2CO}-[Dap]Y(Carboxymethyl)DWV[Bip]V[Orn][dL]H[Cha]VT[ξC][dE][Aun]-OH; thioether N-14), for which the pIC50 is 7.37.

On to `CC(C)C[C@H]1NC(=O)[C@H](CCCN)NC(=O)[C@H](C(C)C)NC(=O)[C@H](Cc2ccc(-c3ccccc3)cc2)NC(=O)[C@H](C(C)C)NC(=O)[C@H](Cc2c[nH]c3ccccc23)NC(=O)[C@H](CC(=O)O)NC(=O)[C@H](Cc2ccc(OCC(=O)O)cc2)NC(=O)[C@H](CN)NC(=O)CSCC(C(=O)N[C@H](CO)C(=O)NCCCCCCCCCCC(=O)O)NC(=O)[C@H]([C@@H](C)O)NC(=O)[C@H](C(C)C)NC(=O)[C@H](CC2CCCCC2)NC(=O)[C@H](Cc2cnc[nH]2)NC1=O` (stereo partly drawn) [Compound 1123] ({CH2CO}-[Dap]Y(Carboxymethyl)DWV[Bip]V[Orn][dL]H[Cha]VT[ξC][dS][Aun]-OH; thioether N-14), for which the pIC50 was 7.32.

Take `CC(C)C[C@H]1NC(=O)[C@H](CCCN)NC(=O)[C@H](C(C)C)NC(=O)[C@H](Cc2ccc(-c3ccccc3)cc2)NC(=O)[C@H](C(C)C)NC(=O)[C@H](Cc2c[nH]c3ccccc23)NC(=O)[C@H](CC(=O)O)NC(=O)[C@H](Cc2ccc(OCC(=O)O)cc2)NC(=O)[C@H](CN)NC(=O)CSC[C@@H](C(=O)N[C@H](Cc2cnc[nH]2)C(=O)NCCCCCCCCCCC(=O)O)NC(=O)[C@H]([C@@H](C)O)NC(=O)[C@H](C(C)C)NC(=O)[C@H](CC2CCCCC2)NC(=O)[C@H](Cc2cnc[nH]2)NC1=O` [Compound 1124] ({CH2CO}-[Dap]Y(Carboxymethyl)DWV[Bip]V[Orn][dL]H[Cha]VTC[dH][Aun]-OH; thioether N-14): the pIC50 is 7.42.

`CC(C)C[C@H]1NC(=O)[C@H](CCCN)NC(=O)[C@H](C(C)C)NC(=O)[C@H](Cc2ccc(-c3ccccc3)cc2)NC(=O)[C@H](C(C)C)NC(=O)[C@H](Cc2c[nH]c3ccccc23)NC(=O)[C@H](CC(=O)O)NC(=O)[C@H](Cc2ccc(OCC(=O)O)cc2)NC(=O)[C@H](CN)NC(=O)CSCC(C(=O)N[C@H](CC(N)=O)C(=O)NCCCCCCCCCCC(=O)O)NC(=O)[C@H]([C@@H](C)O)NC(=O)[C@H](C(C)C)NC(=O)[C@H](CC2CCCCC2)NC(=O)[C@H](Cc2cnc[nH]2)NC1=O` (stereo partly drawn) [Compound 1125] ({CH2CO}-[Dap]Y(Carboxymethyl)DWV[Bip]V[Orn][dL]H[Cha]VT[ξC][dN][Aun]-OH; thioether N-14): the pIC50 was 7.45.
